Measured values: US20120027687A1, “FATTY ACID PROTEIN KINASE C ACTIVATORS AND ANTICOAGULANT FOR THE TREATMENT OF STROKE” (priority 2010, published 2012)
Where two headings read alike, the source gives them in different places.

Experiments:
PKCε = target: T1, PKCε (Homo sapiens, UniProt Q02156); assay: PKC assay with purified PKCε; type: biochemical; conditions: for effect on purified PKCε (FIG. 7, FIG. 8): preincubated five minutes, radiometric
T1 construct: purchased Calbiochem
T1 sequence (Q02156 1-737): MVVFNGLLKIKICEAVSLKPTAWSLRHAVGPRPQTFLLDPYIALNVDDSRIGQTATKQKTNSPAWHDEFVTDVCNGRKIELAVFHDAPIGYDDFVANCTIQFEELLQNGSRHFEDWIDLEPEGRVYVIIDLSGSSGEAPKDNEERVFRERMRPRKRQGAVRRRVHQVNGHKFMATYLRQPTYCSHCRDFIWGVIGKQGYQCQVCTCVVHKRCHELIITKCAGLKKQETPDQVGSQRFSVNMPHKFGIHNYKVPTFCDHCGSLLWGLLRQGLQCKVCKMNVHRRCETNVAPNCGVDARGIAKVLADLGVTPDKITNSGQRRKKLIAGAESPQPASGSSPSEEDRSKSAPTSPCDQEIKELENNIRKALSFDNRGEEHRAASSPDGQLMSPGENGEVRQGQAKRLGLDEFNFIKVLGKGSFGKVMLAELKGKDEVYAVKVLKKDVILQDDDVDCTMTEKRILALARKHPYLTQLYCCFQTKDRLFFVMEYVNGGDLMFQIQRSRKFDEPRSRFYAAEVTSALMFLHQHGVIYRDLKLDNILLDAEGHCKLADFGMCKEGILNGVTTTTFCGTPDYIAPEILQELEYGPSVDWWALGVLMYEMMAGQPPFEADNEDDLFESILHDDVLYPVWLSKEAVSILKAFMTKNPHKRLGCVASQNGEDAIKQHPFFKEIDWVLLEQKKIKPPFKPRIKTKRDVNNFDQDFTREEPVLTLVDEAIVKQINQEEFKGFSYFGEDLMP
Procedure: PKC assay. […] 0.5 micro Ci[^γ32P]ATP was added. […] The reaction was stopped by spotting the reaction mixtures on 1×2 cm strips of cellulose phosphate paper (Whatman P81) and immediately washing twice for 1 hr in 0.5% H3PO4. The cellulose phosphate strips were counted in a scintillation counter. In some experiments, phosphatidylserine, diacylglycerol, and/or calcium were removed. […]
To determine their PKC isozyme specificity, fatty acid derivatives were preincubated with purified PKC for five minutes and the PKC activity was measured radiometrically.

PKC [1] = assay: PKC activation over time in H19-7/IGF-IR hippocampal cells; type: cell-based, rat
Procedure: (§1) Cell culture. Rat hippocampal H19-7/IGF-IR cells (ATCC, Manassas, Va.) were plated onto poly-L-lysine coated plates and grown at 35° C. in DMEM/10% FCS for several days until about 50% coverage was obtained. The cells were then induced to differentiate into a neuronal phenotype by replacing the medium with 5 ml N2 medium containing 10 ng/ml basic fibroblast growth factor at 39° C. and grown in T-75 flasks at 37° C. Human SH-SY5Y neuroblastoma cells (ATCC) were cultured in 45% F12K/45% MEM/10% FCS. Mouse N2A neuroblastoma cells were cultured in DMEM/10% FCS without glutamine. Rat hippocampal neurons from 18-day-old embryonic Sprague Dawley rat brains were plated on 12- or 96-well plates coated with poly-D-lysine (Sigma-Aldrich, St. Louis, Mo.) in B-27 neurobasal medium containing 0.5 mM glutamine and 25 μM glutamate (Invitrogen, Carlsbad, Calif.) and cultured for three days in the medium without glutamate. The neuronal cells were grown under 5% CO2 in an incubator maintained at 37° C. for 14 days.
Protein kinase C assay. Rat hippocampal cells were cultured and scraped in 0.2 ml homogenization buffer (20 mM Tris-HCl, pH 7.4, 50 mM NaF, 1 μg/ml leupeptin, and 0.1 mM PMSF) and homogenized by sonication a Marsonix microprobe sonicator (5 sec, 10W). To measure PKC, 10 μl of cell homogenate or purified PKC isozyme (purchased from Calbiochem) was incubated for 15 min at 37° C. in the presence of 10 μM histones, 4.89 mM CaCl2, 1.2 μg/μl phosphatidyl-L-serine, 0.18 μg/μl 1,2-dioctanoyl-sn-glycerol, 10 mM MgCl2, 20 mM HEPES (pH 7.4), 0.8 mM EDTA, 4 mM EGTA, 4% glycerol, 8 μg/ml aprotinin, 8 μg/ml leupeptin, and 2 mM benzamidine. 0.5 Ci [^γ32P]ATP was added and ^32P-phosphoprotein formation was measured by adsorption onto phosphocellulose as described previously. Nelson and Alkon, J. Neurochemistry (1995), vol. 65, pp. 2350-2357. For measurements of activation by BR-101 (DCP-LA) and similar compounds. PKC activity was measured in the absence of diacylglycerol and phosphatidylserine and PKC δ, ε, η, and μ were measured in the absence of added EGTA and CaCl2, as described by Kanno et al. (J. Lipid Res. 2006, vol. 47, pp. 1146-1150). Low concentrations of Ca^2+ are used because high Ca^2+ interacts with the PKC phosphatidylserine binding site and prevents activation. For measurements of bryostatin activation, 1,2-diacylglycerol was omitted unless otherwise stated.

α-secretase = conditions: cited from earlier work
[2] = tested on: SH-SY5Y neuroblastoma cells; assay: Cell survival and proliferation (alamar Blue, CyQuant); type: cell-based, human; conditions: alamar Blue and CyQuant staining
Procedure: (§2) Aβ Measurement and Cell Viability Assay. Aβ was measured using an Aβ 1-42 human fluorimetric ELISA kit (Invitrogen) according to the manufacturer's instructions. Results were measured in a Biotek Synergy HT microplate reader. AlamarBlue and CyQuant NF (Invitrogen) according to the manufacturer's instructions.

Aβ = Aβ production in N2a neuroblastoma cells transfected with human APPSwe/PSID; type: cell-based, mouse; conditions: 24 hours, various concentrations
Procedure: as §1, §2
To measure the effects of PKCε activation on Aβ production, mouse neuro2a (N2a) neuroblastoma cells transfected with human APPSwe/PSID were used, which produce large quantities of Aβ. Petanceska et al., J. Neurochem. (1996), vol. 74, pp. 1878-1884. […] With bryostatin, which activates PKC by binding to the diacylglycerol-binding site, the inhibition was biphasic with concentrations of 20 nM or higher producing no net effect. This may be explained by the ability of this class of PKC activators to downregulate PKC when used at high concentrations.

[3] = tested on: Endothelin-converting enzyme (ECE); assay: Endothelin-converting enzyme (ECE) activity in neuroblastoma cells; type: cell-based, human; conditions: bryostatin 0.27 nM, BR-101 1 μM, BR-111 1 μM
Procedure: ECE assay. […] neuroblastoma cells were incubated with bryostatin (0.27 nM), BR-101 (DCP-LA) (1 μM), and BR-111 (DHA-CP6) (1 μM). Endothelin-converting enzyme (ECE) was measured fluorimetrically using the method of Johnson and Ahn (Anal. Biochem. (2000), vol. 286, pp. 112-118). A sample of cell homogenate (20 μl) was incubated in 50 mM MES-KOH, pH 6.0, 0.01% C12E10 (polyoxyethylene-10-lauryl ether), and 15 μM McaBK2 (7-Methoxycoumarin-4-acetyl [Ala7-(2,4-Dinitrophenyl)Lys9]-bradykinin trifluoroacetate salt) (Sigma-Aldrich). After 60 min at 37° C., the reaction was quenched by adding trifluoroacetic acid to 0.5%. The sample was diluted to 1.4 ml with water and the fluorescence was measured at ex=334 nm, em=398 nm.

TACE = TACE activity in neuronal cells; type: cell-based, human, mouse; conditions: SH-SY5Y cells, N2a cells, primary neurons from rat hippocampus
Procedure: TACE Assay. TACE was measured by incubating 5 μl cell homogenate, 3 μl buffer (50 mM Tris-HCl 7.4 plus 25 mM NaCl plus 4% glycerol), and 1 μl of 100 μM TACE substrate (Aβz-[…]-DPa) (Calbiochem) for 20 min at 37° C. 1.5-ml polypropylene centrifuge tubes. Jin et al., Anal. Biochem. (2002), vol. 302, pp. 269-275. The reaction was stopped by cooling to 4° C. The samples were diluted to 1 ml and the fluorescence was rapidly measured (ex=320 nm, em=420 nm) in a Spex Fluorolog 2 spectrofluorometer.

PKC [4] = conditions: competition with [3H] phorbol dibutyrate; cited from earlier work
NIC 60 cell line screen = conditions: cited from earlier work
PKC [5] = conditions: cited from earlier work; for Ki: A-ring bryologs, read-out: affinity for PKC

Q: With `CCCCCC1OC1C/C=C\CCCCCCCC(=O)OC` (stereo in doubt) [BR-117, vernolic acid methyl ester] as the compound, how does the “effect on purified PKCε (FIG. 7, FIG. 8)” value (PKCε) read?
A: little or no effect

Q: Which “effect on purified PKCε (FIG. 7, FIG. 8)” value (PKCε) does the source give for `CCC1CC1CC1CC1CC1CC1CCCCCCCCO` (stereo not drawn) [BR-104, linolenic alcohol tricyclopropane] here?
A: little or no effect

Q: Which “effect on purified PKCε (FIG. 7, FIG. 8)” value (PKCε) does the source give for `CCCCCC1CC1CC1CC1CCCCCCCCO` (stereo not drawn) [BR-105, linoleic alcohol dicyclopropane] here?
A: little or no effect

Q: With `CCCCC[C@H]1O[C@H]1CC1CC1CCCCCCCC(=O)OC` (stereo partly drawn) [BR-109, vernolic acid methyl ester cyclopropane] as the compound, how does the “concentrations at which PKCε is inhibited” value (PKCε) read?
A: above 1 μM

Q: Which “concentration needed to activate PKC, times lower than for BR-101 (DCP-LA)” value (PKCε) does the source give for `CCC1CC1CC1CC1CC1CC1CC1CC1CC1CC1CCCC(=O)OC` (stereo not drawn) [BR-114] here?
A: approximately 100 times

Q: What about the “effect on purified PKCε (FIG. 7, FIG. 8)” value (PKCε) of the same compound?
A: activated

Q: With `CCCCCC1CC1CC1CC1CC1CC1CC1CC1CCCC(=O)OC` (stereo not drawn) [BR-115, methyl 4-(2-((2-((2-((-pentylcyclopropyl)methyl)cyclopropyl)methyl)cyclopropyl)methyl)cyclopropyl)butanoate methyl ester] as the compound, how does the “concentration needed to activate PKC, times lower than for BR-101 (DCP-LA)” value (PKCε) read?
A: approximately 100 times

Q: What about the “effect on purified PKCε (FIG. 7, FIG. 8)” value (PKCε) of the same compound?
A: activated

Q: Which results are given for `CCC/C=C/C=C/C(=O)O[C@H]1/C(=C/C(=O)OC)C[C@H]2C[C@H]([C@@H](C)O)OC(=O)C[C@H](O)C[C@@H]3C[C@H](OC(C)=O)C(C)(C)[C@](O)(C[C@@H]4C/C(=C/C(=O)OC)C[C@H](/C=C/C(C)(C)[C@]1(O)O2)O4)O3` [Bryostatin-1]?
A: PKC downregulation following activation (PKC [1]; 0.04 nM and 0.2 nM): 20%; time of return of PKC to baseline (PKC [1]; 0.04 nM and 0.2 nM): ≤ 24 h; PKC activation (PKC [1]; 0.04 nM and 0.2 nM, data not shown): 2 fold; PKC activity at 8 hours (downregulation) (PKC [1]; data not shown): at or near the baseline; increase of initial rate of α-secretase activity (α-secretase; 10 μM): 16 fold; increase of initial rate of α-secretase activity (α-secretase; 100 μM): 132 fold; effect on cell survival [2]: no effect; levels of intracellular Aβ (Aβ): markedly reduced; levels of secreted Aβ (Aβ): markedly reduced; ECE activity [3]: sustained increase; TACE activity (TACE): small increases

Q: For `CC1=C[C@]23C(=O)[C@@H](C=C(COC(=O)c4ccccc4)[C@@H](O)[C@]2(O)[C@H]1OC(=O)c1ccccc1)[C@H]1[C@@H](C[C@H]3C)C1(C)C` [Ingenol 3,20-dibenzoate], which Ki (PKC [4]) is on record?
A: 240 nM

Q: With `CC1=CC[C@H](C)C(C)(C)[C@@H]1/C=C/C(C)=C/CC[C@@]1(CO)[C@H](CCCO)/C(=C(/C)C=O)CC[C@]1(C)O` [Iripallidal] as the compound, how does the “GI50 (concentration required to inhibit growth by 50%)” value (NIC 60 cell line screen) read?
A: micromolar to nanomolar range

Q: What does the source list for `CCCCCCCCCCCCCC(=O)O[C@@H]1[C@@H](C)[C@@]2(O)[C@@H](C=C(CO)C[C@]3(O)C(=O)C(C)=C[C@@H]23)[C@@H]2C(C)(C)[C@]12OC(C)=O` [PMA, phorbol 12-myristate 13-acetate]?
A: PKC activity at 8 hours (downregulation) (PKC [1]; data not shown): strongly downregulated; EC50 (PKC [5]; read-out: affinity for PKC (EC50)): […]

Q: For `CCCCCCCC(=O)OC1C(=CC(=O)OC)CC2CC(CO)OC(=O)CC(O)CCOC(C(C)(C)C)CC3CCOC(C=CC(C)(C)C1(O)O2)O3` (stereo not drawn) [bryolog 3], which Ki (PKC [5]) is on record?
A: 6.5 nM

Q: Which Ki (PKC [5]) does the source give for `CCCCCCCC(=O)OC1C(=CC(=O)OC)CC2CC(CO)OC(=O)CC(O)CCOC(c3ccccc3)CC3CCOC(C=CC(C)(C)C1(O)O2)O3` (stereo not drawn) [bryolog 4] here?
A: 2.3 nM

Q: For `CCCCCCCC(=O)OC1C(=CC(=O)OC)CC2CC(CO)OC(=O)CC(O)CCOC(CCCc3ccc(Br)cc3)CC3CCOC(C=CC(C)(C)C1(O)O2)O3` (stereo not drawn) [bryolog 5], which Ki (PKC [5]) is on record?
A: 1.9 nM

Q: With epoxystearic acid [BR-116] as the compound, how does the “effect on purified PKCε (FIG. 7, FIG. 8)” value (PKCε) read?
A: little or no effect
